{
  "source": "patent US6905852B1",
  "about": "“Herbicide-resistant protoporphyrinogen oxidase isolated from Nicotiana tabacum” (Nihon Nohyaku Co., Ltd., priority 1997, dated 2005)",
  "assay_in_all_cases": "Growth inhibition of E. coli SASX38 (liquid culture with shaking)",
  "key": {"[1]": {"biological_target": "T1, E. coli SASX38 strain having pBAtPX-C with Arabidopsis thaliana wild type protoporphyrinogen oxidase gene (Arabidopsis thaliana, UniProt P55826)", "T1 construct": "expressed in transfected cells; host or cells: E. coli SASX38 (hemG-deficient) carrying pBAtPX-C (pBluescript SK(-))", "T1 sequence (P55826 35-537)": "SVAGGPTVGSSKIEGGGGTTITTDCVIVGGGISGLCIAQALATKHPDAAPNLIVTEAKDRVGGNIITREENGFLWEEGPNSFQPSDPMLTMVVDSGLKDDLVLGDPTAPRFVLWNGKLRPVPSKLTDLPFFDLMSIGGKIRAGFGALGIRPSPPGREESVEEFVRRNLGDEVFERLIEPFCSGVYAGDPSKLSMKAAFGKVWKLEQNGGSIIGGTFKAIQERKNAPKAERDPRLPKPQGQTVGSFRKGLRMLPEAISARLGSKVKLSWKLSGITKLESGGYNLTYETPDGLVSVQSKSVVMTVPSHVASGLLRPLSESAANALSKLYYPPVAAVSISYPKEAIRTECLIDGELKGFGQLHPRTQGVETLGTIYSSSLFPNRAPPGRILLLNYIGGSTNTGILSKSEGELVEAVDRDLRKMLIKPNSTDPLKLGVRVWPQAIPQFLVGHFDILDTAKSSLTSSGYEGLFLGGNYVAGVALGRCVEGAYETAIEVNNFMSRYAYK", "type": "cell-based", "conditions": "Arabidopsis thaliana wild type (pBAtPX-C); read-out: IC50, growth of E. coli", "experimental": "(§1) The E. coli SASX38 strain containing either of the above-described two kinds of plasmid was cultured with shaking in LB liquid medium containing 50 μg/ml of ampicillin at 28° C. for overnight."}, "[2]": {"biological_target": "T2, E. coli SASX38 strain having pBAtPX-RC with Arabidopsis thaliana resistant type protoporphyrinogen oxidase cDNA (Arabidopsis thaliana, UniProt P55826, A220V)", "T2 construct": "expressed in transfected cells; host or cells: E. coli SASX38 (hemG-deficient) carrying pBAtPX-RC (pBluescript SK(-))", "T2 sequence (P55826 35-537 A220V)": "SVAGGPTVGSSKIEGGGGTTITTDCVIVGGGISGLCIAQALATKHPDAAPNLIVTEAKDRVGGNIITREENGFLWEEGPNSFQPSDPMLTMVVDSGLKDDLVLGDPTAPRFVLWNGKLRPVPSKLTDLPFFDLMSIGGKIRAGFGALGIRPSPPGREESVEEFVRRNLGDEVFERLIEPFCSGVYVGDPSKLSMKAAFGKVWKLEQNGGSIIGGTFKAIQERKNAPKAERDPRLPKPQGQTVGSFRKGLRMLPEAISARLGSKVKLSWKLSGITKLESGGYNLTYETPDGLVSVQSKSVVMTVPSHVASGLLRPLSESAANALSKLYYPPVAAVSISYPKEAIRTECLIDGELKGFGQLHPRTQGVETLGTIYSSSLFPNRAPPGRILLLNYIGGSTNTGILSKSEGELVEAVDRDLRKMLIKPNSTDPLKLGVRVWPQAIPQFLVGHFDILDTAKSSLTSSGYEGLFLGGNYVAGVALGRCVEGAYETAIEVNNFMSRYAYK", "type": "cell-based", "experimental": "as §1"}, "[3]": {"biological_target": "T3, E. coli SASX38 strain having pCR-HC with tobacco wild type protoporphyrinogen oxidase cDNA (Nicotiana tabacum, UniProt O24163)", "T3 construct": "expressed in transfected cells; host or cells: E. coli SASX38 (hemG-deficient) carrying pCR-HC", "T3 sequence (O24163 51-548)": "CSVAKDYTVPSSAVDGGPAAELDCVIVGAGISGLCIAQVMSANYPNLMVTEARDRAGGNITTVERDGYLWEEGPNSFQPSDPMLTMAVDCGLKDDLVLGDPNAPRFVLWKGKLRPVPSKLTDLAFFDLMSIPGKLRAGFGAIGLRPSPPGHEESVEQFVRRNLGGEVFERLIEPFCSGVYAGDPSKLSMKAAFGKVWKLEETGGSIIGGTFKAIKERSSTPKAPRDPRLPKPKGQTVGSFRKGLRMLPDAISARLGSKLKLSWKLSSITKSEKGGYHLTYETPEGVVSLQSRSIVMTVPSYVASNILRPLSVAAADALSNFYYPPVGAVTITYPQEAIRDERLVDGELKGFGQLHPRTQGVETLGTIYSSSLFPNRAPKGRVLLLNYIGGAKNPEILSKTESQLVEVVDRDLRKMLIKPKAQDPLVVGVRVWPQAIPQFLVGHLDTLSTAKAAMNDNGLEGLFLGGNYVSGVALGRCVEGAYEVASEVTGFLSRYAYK", "type": "cell-based", "conditions": "E. coli containing pCR-HC; read-out: IC50, growth of E. coli inhibited by 50%", "experimental": "as §1"}, "[4]": {"biological_target": "T4, E. coli SASX38 strain having pCR-RC with tobacco resistant type protoporphyrinogen oxidase gene (Nicotiana tabacum, UniProt O24163, A174P/A191P/A231V/T382S)", "T4 construct": "expressed in transfected cells; host or cells: E. coli SASX38 (hemG-deficient) carrying pCR-RC", "T4 sequence (O24163 whole entry A174P/A191P/A231V/T382S)": "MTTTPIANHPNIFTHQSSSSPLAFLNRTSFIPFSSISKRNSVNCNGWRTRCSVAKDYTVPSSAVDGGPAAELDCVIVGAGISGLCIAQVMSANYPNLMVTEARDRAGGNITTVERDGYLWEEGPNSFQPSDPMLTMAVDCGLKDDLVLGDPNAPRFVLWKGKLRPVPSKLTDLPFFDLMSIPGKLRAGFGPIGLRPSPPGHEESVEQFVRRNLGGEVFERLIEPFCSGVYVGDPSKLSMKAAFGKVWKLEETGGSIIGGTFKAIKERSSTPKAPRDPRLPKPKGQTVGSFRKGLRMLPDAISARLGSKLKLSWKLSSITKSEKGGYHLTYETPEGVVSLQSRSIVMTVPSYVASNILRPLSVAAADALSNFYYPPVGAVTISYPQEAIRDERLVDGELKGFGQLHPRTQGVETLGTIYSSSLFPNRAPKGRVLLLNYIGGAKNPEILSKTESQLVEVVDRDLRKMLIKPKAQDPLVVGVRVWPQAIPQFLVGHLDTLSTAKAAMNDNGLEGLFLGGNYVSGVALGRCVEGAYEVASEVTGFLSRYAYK", "type": "cell-based", "experimental": "as §1"}, "[5]": {"tested_on": "E. coli SASX38 strain having pCR-RC with tobacco resistant type protoporphyrinogen oxidase gene", "type": "cell-based, Nicotiana tabacum", "conditions": "tobacco", "experimental": "as §1"}},
  "data": [
    {"smiles": "CCOC(=O)COc1cc(-c2nn(C)c(OC(F)F)c2Cl)c(F)cc1Cl", "note": "[Compound A, ethyl 2-chloro-5-(4-chloro-5-difluoromethoxy-1-methyl-1H-pyrazol-3-yl)-4-fluorophenoxyacetate]", "values": [
      {"measurement": "IC50", "setting": "[1]", "value": "~5", "unit": "nM"},
      {"measurement": "IC50", "setting": "[2]", "value": 1500, "unit": "nM"},
      {"measurement": "R/S ratio (IC50 value of the resistant type/IC50 value of the wild type)", "setting": "[2]; Arabidopsis thaliana", "value": "about 300"},
      {"measurement": "IC50", "setting": "[3]", "value": "~2.5", "unit": "nM"},
      {"measurement": "IC50", "setting": "[4]", "value": "≥ 10", "unit": "µM"},
      {"measurement": "R/S ratio (IC50 value of a resistant type/IC50 value in a wild type)", "setting": "[5]", "value": "over 4,000"}
    ]}
  ]
}
